The target of this assay is T1, thrombin (Homo sapiens, UniProt P00734).
T1 construct: gene F2
As to the kind of experiment: thrombin inhibition dose-response, apparent Ki. Format: biochemical.

Drawing on PMC7382296, “Discovery of potent thrombin inhibitors from a protease-focused DNA-encoded chemical library” (Proceedings of the National Academy of Sciences of the …, 2020), this text covers Ki for 1 molecule.

As to `CNC(=O)[C@@H]1CN(C(=O)[C@H](Cc2ccccc2CNC(=N)N)NC(=O)N(C)C2CCOc3ccccc32)C[C@H]1c1ccc(OC)cc1` (stereo partly shown) [compound 5], the Ki was determined as 1 nM.
